In patent publication US20240148821A1, “PHARMACEUTICAL USE OF CYCLIC PEPTIDE COMPOUND” (CHUGAI SEIYAKU KABUSHIKI KAISHA, priority 2021, published 2024):
pIC50: −log10 of the molar value. Numbered stars: 1 amine (or outer) side, 2 acyl side, 3 side chain; on linkers, the order of the positions; unused ones are H or OH. Bridge positions count the residues as written; N and C are the ends. Square brackets hold non-standard residues; d marks the D form. Peptide text beside a SMILES is read from it. * marks the point of attachment. X45 = CN([C@@H](CC=C1CN(C(=O)OC(C)(C)C)C1)C(=O)[*:2])[*:1]; hPhe(3-Cl-4-CF3) = N[C@@H](CCc1ccc(C(F)(F)F)c(Cl)c1)C(=O)O; X46 = CN([C@@H](CCC1CN(C(=O)OC(C)(C)C)C1)C(=O)[*:2])[*:1]; hPhe(3-F,4-CF3) = N[C@@H](CCc1ccc(C(F)(F)F)c(F)c1)C(=O)O; NMePhe(4-CF3) = CN[C@@H](Cc1ccc(C(F)(F)F)cc1)C(=O)O; hPhe(4-CF3) = N[C@@H](CCc1ccc(C(F)(F)F)cc1)C(=O)O; NMePhe(4-Cl) = CN[C@@H](Cc1ccc(Cl)cc1)C(=O)O; NMePhe(4-Me) = CN[C@@H](Cc1ccc(C)cc1)C(=O)O; NMePhe(4-F) = CN[C@@H](Cc1ccc(F)cc1)C(=O)O; X61 = O=C(CN(CCCN1CCC(F)(F)CC1)[*:1])[*:2]; NMedβ3hAla = C[C@H](CC(=O)[*:2])N(C)[*:1]; NMeGly(cPent) = CN[C@H](C(=O)O)C1CCCC1; NMeCha = CN[C@@H](CC1CCCCC1)C(=O)O; NMeGly(cPr) = CN[C@H](C(=O)O)C1CC1; NMeChg = CN[C@H](C(=O)O)C1CCCCC1; NMeI = CC[C@H](C)[C@H](NC)C(=O)O; d(β3hL) = CC(C)C[C@@H](N)CC(=O)O; NMeD = CN[C@@H](CC(=O)O)C(=O)O; NMeL = CN[C@@H](CC(C)C)C(=O)O; NMeNle = CCCC[C@H](NC)C(=O)O; NMeV = CN[C@H](C(=O)O)C(C)C; d(β3hA) = C[C@@H](N)CC(=O)O; NMeS = CN[C@@H](CO)C(=O)O; NMeA = CN[C@@H](C)C(=O)O; Piperidide = C1CCN(*)CC1; Thz = O=C(O)[C@@H]1CSCN1; dNMeA = CN[C@H](C)C(=O)O; Ac5c = NC1(C(=O)O)CCCC1; Aze = O=C(O)[C@@H]1CCN1; CH2CMe2OH = CC(C)(O)C*; Cyclobutyl = C1CC(*)C1; Aib = CC(C)(N)C(=O)O; Sar = CNCC(=O)O

molecular target: protein-protein interaction between Kras and SOS1 (biotin-tagged human Kras loaded with GDP, His-tagged human SOS1) (Homo sapiens (Human), UniProt P01116, G12D); assay: Protein-protein interaction inhibition between Kras and SOS1 (KrasG12D-SOS PPI) using AlphaScreen; type: biochemical; conditions: AlphaScreen; biotin-tagged human Kras loaded with GDP, His-tagged human SOS1; read-out: KRAS G12D-SOS PPI IC50;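 note: kras produced in E. coli, Ni-coupled donor beads and streptavidin acceptor beads, excitation 680 nm with emission detected at 520–620 nm via singlet oxygen transfer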

Row | Structure (SMILES) | pIC50
1 | CC[C@H](C)[C@@H]1NC(=O)[C@H](CC(C)C)N(C)C(=O)C[C@@H](C)NC(=O)[C@H](C(C)C)N(C)C(=O)C2(CCCC2)NC(=O)[C@@H]2CCCN2C(=O)[C@H](CCc2ccc(C(F)(F)F)c(Cl)c2)NC(=O)CN(C)C(=O)[C@H](CC2CCCCC2)N(C)C(=O)[C@@H]2CCN2C(=O)[C@@H]2CCN2C1=O [Compound 181] (cyclo([Ac5c][NMeV][d(β3hA)][NMeL]I[Aze][Aze][NMeCha][Sar][hPhe(3-Cl-4-CF3)]P)) | 6.89
2 | CC[C@H](C)[C@@H]1NC(=O)[C@H](CC(C)C)N(C)C(=O)C[C@@H](C)NC(=O)[C@H](CC(C)C)N(C)C(=O)C(C)(C)NC(=O)[C@H](CC(C)C)N(C)C(=O)[C@H](CCc2ccc(C(F)(F)F)cc2)NC(=O)CN(C)C(=O)[C@H](Cc2ccc(Cl)cc2)N(C)C(=O)CN(C)C(=O)CN(C)C1=O [Compound 261] (cyclo([Aib][NMeL][d(β3hA)][NMeL]I[Sar][Sar][NMePhe(4-Cl)][Sar][hPhe(4-CF3)][NMeL])) | 7.28
3 | CC[C@H](C)[C@@H]1NC(=O)[C@H](CC(C)C)N(C)C(=O)C[C@@H](C(=O)N(C)C)N(C)C(=O)[C@H]([C@@H](C)CC)N(C)C(=O)CNC(=O)[C@@H]2CCCN2C(=O)[C@H](CCc2ccc(C(F)(F)F)c(Cl)c2)NC(=O)CN(C)C(=O)[C@H](Cc2ccc(C)cc2)N(C)C(=O)[C@@H]2CCN2C(=O)[C@H](C)N(C)C1=O [Compound 828] ([NMeL]I[NMeA][Aze][NMePhe(4-Me)][Sar][hPhe(3-Cl-4-CF3)]PG[NMeI][NMeD]-NMe2; lactam N-11) | 7.40
4 | CC[C@H](C)[C@@H]1NC(=O)[C@H](CC(C)C)N(C)C(=O)C[C@@H](C(=O)N2CCCCC2)N(C)C(=O)[C@H](C2CCCCC2)N(C)C(=O)C2(CCCC2)NC(=O)[C@H](COCC(C)(C)O)N(C)C(=O)[C@H](CCc2ccc(C(F)(F)F)c(Cl)c2)NC(=O)CN(C)C(=O)[C@H](CC2CCCCC2)N(C)C(=O)CN(C)C(=O)CN(C)C1=O [Compound 789] ([NMeL]I[Sar][Sar][NMeCha][Sar][hPhe(3-Cl-4-CF3)][NMeS](CH2CMe2OH)[Ac5c][NMeChg][NMeD]-Piperidide; lactam N-11) | 9.21
5 | CCCC[C@H]1C(=O)N2CC[C@H]2C(=O)N(C)[C@@H](CC2CCCCC2)C(=O)N(C)[C@H](C)C(=O)N[C@@H](CCc2ccc(C(F)(F)F)c(Cl)c2)C(=O)N2CCC[C@H]2C(=O)NC2(CCCC2)C(=O)N(C)[C@@H](C(C)C)C(=O)N[C@H](C)CC(=O)N(C)[C@@H](C)C(=O)N[C@@H]([C@@H](C)CC)C(=O)N1C [Compound 2017] (cyclo([Ac5c][NMeV][d(β3hA)][NMeA]I[NMeNle][Aze][NMeCha][dNMeA][hPhe(3-Cl-4-CF3)]P)) | 6.46
6 | CC[C@H](C)[C@@H]1NC(=O)[C@H](CC(C)C)N(C)C(=O)C[C@@H](C)N(C)C(=O)[C@H]([C@@H](C)CC)N(C)C(=O)C2(CCCC2)NC(=O)[C@@H]2CCCN2C(=O)[C@H](CCc2ccc(C(F)(F)F)c(F)c2)NC(=O)CN(C)C(=O)[C@H](CC2CCCCC2)N(C)C(=O)[C@@H]2CCN2C(=O)[C@H](C)N(C)C1=O [Compound 859] (cyclo([Ac5c][NMeI][NMedβ3hAla][NMeL]I[NMeA][Aze][NMeCha][Sar][hPhe(3-F,4-CF3)]P)) | 7.19
7 | CC[C@H](C)[C@@H]1NC(=O)[C@H](CC(C)C)N(C)C(=O)C[C@@H](C(=O)N2CCCCC2)N(C)C(=O)[C@H](C2CCCCC2)N(C)C(=O)C2(CCCC2)NC(=O)CN(CCCN2CCC(F)(F)CC2)C(=O)[C@H](CCc2ccc(C(F)(F)F)c(Cl)c2)NC(=O)CN(C)C(=O)[C@H](CC2CCCCC2)N(C)C(=O)CN(C)C(=O)CN(C)C1=O [Compound 2021] ([NMeL]I[Sar][Sar][NMeCha][Sar][hPhe(3-Cl-4-CF3)][X61][Ac5c][NMeChg][NMeD]-Piperidide; lactam N-11) | 8.55
8 | CC[C@H](C)[C@@H]1NC(=O)[C@H](CC(C)C)N(C)C(=O)C[C@@H](C(=O)N2CCCCC2)N(C)C(=O)[C@H](C2CCCCC2)N(C)C(=O)C2(CCCC2)NC(=O)[C@@H]2CSCN2C(=O)[C@H](CCc2ccc(C(F)(F)F)c(Cl)c2)NC(=O)CN(C)C(=O)[C@H](CC2CCCCC2)N(C)C(=O)CN(C)C(=O)CN(C)C1=O [Compound 1093] ([NMeL]I[Sar][Sar][NMeCha][Sar][hPhe(3-Cl-4-CF3)][Thz][Ac5c][NMeChg][NMeD]-Piperidide; lactam N-11) | 9.14
9 | CC[C@H](C)[C@@H]1NC(=O)[C@H](CC(C)C)N(C)C(=O)C[C@@H](C)NC(=O)[C@H](C(C)C)N(C)C(=O)C2(CCCC2)NC(=O)[C@@H]2CCCN2C(=O)[C@H](CCc2ccc(C(F)(F)F)c(Cl)c2)NC(=O)CN(C)C(=O)[C@H](CC2CCCCC2)N(C)C(=O)[C@@H]2CCN2C(=O)[C@H](C2CC2)N(C)C1=O [Compound 1586] (cyclo([Ac5c][NMeV][d(β3hA)][NMeL]I[NMeGly(cPr)][Aze][NMeCha][Sar][hPhe(3-Cl-4-CF3)]P)) | 7.23
10 | CC[C@H](C)[C@@H]1NC(=O)[C@H](CC(C)C)N(C)C(=O)C[C@@H](C(=O)N2CCCCC2)N(C)C(=O)[C@H](C2CCCCC2)N(C)C(=O)C2(CCCC2)NC(=O)[C@H](CCC2CN(C(=O)OC(C)(C)C)C2)N(C)C(=O)[C@H](CCc2ccc(C(F)(F)F)c(Cl)c2)NC(=O)CN(C)C(=O)[C@H](CC2CCCCC2)N(C)C(=O)CN(C)C(=O)CN(C)C1=O [Compound 2056, tert-butyl 3-[2-[(8S,11S,17S,26S,29S,33S,36S)-11-[2-[3-chloro-4-(trifluoromethyl)phenyl]ethyl]-36-cyclohexyl-17-(cyclohexylmethyl)-29-isobutyl-9,15,18,21,24,30,34,37-octamethyl-26-[(1S)-1-methylpropyl]-7,10,13,16,19,22,25,28,31,35,38-undecaoxo-33-(piperidine-1-carbonyl)-6,9,12,15,18,21,24,27,30,34,37-undecazaspiro[4.3 3]octatriacontan-8-yl]ethyl]azetidine-1-carboxylate] ([NMeL]I[Sar][Sar][NMeCha][Sar][hPhe(3-Cl-4-CF3)][X46][Ac5c][NMeChg][NMeD]-Piperidide; lactam N-11) | 7.89
11 | CC[C@H](C)[C@@H]1NC(=O)[C@H](COC2CCC2)N(C)C(=O)C[C@@H](C(=O)N2CCCCC2)N(C)C(=O)[C@H](C(C)C)N(C)C(=O)C2(CCCC2)NC(=O)[C@@H]2CCCN2C(=O)[C@H](CCc2ccc(C(F)(F)F)c(Cl)c2)NC(=O)CN(C)C(=O)[C@H](CC2CCCCC2)N(C)C(=O)[C@@H]2CCN2C(=O)[C@H](C)N(C)C1=O [Compound 755] ([NMeS](Cyclobutyl)I[NMeA][Aze][NMeCha][Sar][hPhe(3-Cl-4-CF3)]P[Ac5c][NMeV][NMeD]-Piperidide; lactam N-11) | 8.25
12 | CC[C@H](C)[C@@H]1NC(=O)[C@H](C(C)C)N(C)C(=O)C[C@@H](C)NC(=O)[C@H](C(C)C)N(C)C(=O)C2(CCCC2)NC(=O)[C@H](CC(C)C)N(C)C(=O)[C@H](CCc2ccc(C(F)(F)F)c(Cl)c2)NC(=O)CN(C)C(=O)[C@H](Cc2ccc(Cl)cc2)N(C)C(=O)CN(C)C(=O)CN(C)C1=O [Compound 1069] (cyclo([Ac5c][NMeV][d(β3hA)][NMeV]I[Sar][Sar][NMePhe(4-Cl)][Sar][hPhe(3-Cl-4-CF3)][NMeL])) | 7.77
13 | CC[C@H](C)[C@@H]1NC(=O)[C@H](CC(C)C)N(C)C(=O)C[C@@H](C(=O)N2CCCCC2)N(C)C(=O)[C@H](C2CCCC2)N(C)C(=O)C2(CCCC2)NC(=O)[C@@H]2CCCN2C(=O)[C@H](CCc2ccc(C(F)(F)F)c(Cl)c2)NC(=O)CN(C)C(=O)[C@H](Cc2ccc(F)cc2)N(C)C(=O)[C@@H]2CCN2C(=O)[C@H](C)N(C)C1=O [Compound 388] ([NMeL]I[NMeA][Aze][NMePhe(4-F)][Sar][hPhe(3-Cl-4-CF3)]P[Ac5c][NMeGly(cPent)][NMeD]-Piperidide; lactam N-11) | 9.30
14 | CC[C@H](C)[C@@H]1NC(=O)[C@H](CC(C)C)N(C)C(=O)C[C@@H](C)NC(=O)[C@H](C2CCCC2)N(C)C(=O)C2(CCCC2)NC(=O)[C@@H]2CCCN2C(=O)[C@H](CCc2ccc(C(F)(F)F)c(Cl)c2)NC(=O)[C@@H](C)N(C)C(=O)[C@H](Cc2ccc(C(F)(F)F)cc2)N(C)C(=O)[C@@H]2CCN2C(=O)CN(C)C1=O [Compound 1468] (cyclo([Ac5c][NMeGly(cPent)][d(β3hA)][NMeL]I[Sar][Aze][NMePhe(4-CF3)][dNMeA][hPhe(3-Cl-4-CF3)]P)) | 7.05
15 | CC[C@H](C)[C@@H]1NC(=O)[C@H](CC(C)C)N(C)C(=O)C[C@@H](C(=O)N2CCCCC2)N(C)C(=O)[C@H](C2CCCCC2)N(C)C(=O)C2(CCCC2)NC(=O)[C@H](CC=C2CN(C(=O)OC(C)(C)C)C2)N(C)C(=O)[C@H](CCc2ccc(C(F)(F)F)c(Cl)c2)NC(=O)CN(C)C(=O)[C@H](CC2CCCCC2)N(C)C(=O)CN(C)C(=O)CN(C)C1=O [Compound 2050, tert-butyl 3-[2-[(8S,11S,17S,26S,29S,33S,36S)-11-[2-[3-chloro-4-(trifluoromethyl)phenyl]ethyl]-36-cyclohexyl-17-(cyclohexylmethyl)-29-isobutyl-9,15,18,21,24,30,34,37-octamethyl-26-[(1S)-1-methylpropyl]-7,10,13,16,19,22,25,28,31,35,38-undecaoxo-33-(piperidine-1-carbonyl)-6,9,12,15,18,21,24,27,30,34,37-undecazaspiro[4.33]octatriacontan-8-yl]ethylidene]azetidine-1-carboxylate] ([NMeL]I[Sar][Sar][NMeCha][Sar][hPhe(3-Cl-4-CF3)][X45][Ac5c][NMeChg][NMeD]-Piperidide; lactam N-11) | 7.29
16 | CC[C@H](C)[C@@H]1NC(=O)[C@H](CC(C)C)N(C)C(=O)C[C@@H](CC(C)C)NC(=O)[C@H]([C@@H](C)CC)N(C)C(=O)C2(CCCC2)NC(=O)[C@@H]2CCCN2C(=O)[C@H](CCc2ccc(C(F)(F)F)c(Cl)c2)NC(=O)CN(C)C(=O)[C@H](CC2CCCCC2)N(C)C(=O)[C@@H]2CCN2C(=O)[C@H](C)N(C)C1=O [Compound 798] (cyclo([Ac5c][NMeI][d(β3hL)][NMeL]I[NMeA][Aze][NMeCha][Sar][hPhe(3-Cl-4-CF3)]P)) | 7.23
